Series [1] concerns P. falciparum NF54 blood stage. The series is described as follows: In vitro activity against the blood stage of P. falciparum NF54 (SYBR green flow cytometry). The class given is cell-based, Plasmodium falciparum. The note with it: 48 h, read-out: IC50 PfNF54. As to the method:
Ring-stage synchronized cultures of PfNF54 at 2.5% hematocrit and at approximately 1% parasitemia were incubated with gold complexes or DMSO (vehicle control) in 96 well-plates, for 48 h, at 37 °C in a 5% CO2 and 5% O2 atmosphere. Stock solutions of Chloroquine (positive control), [P][AuSEt(=S)] and [P][AuSEt(=Se)] were prepared in DMSO. Working solutions were prepared from the stock solutions in complete malaria culture medium (CMCM), which consists of RPMI 1640 supplemented with 25 mM HEPES, 2.4 mM L-glutamine, 50 μg/mL gentamicin, 0.5% w/v Albumax, 11 mM glucose, 1.47 mM hypoxanthine and 37.3 mM NaHCO3. For each measurement, 5 µL of the culture (approximately 800,000 cells) was stained with the DNA-specific dye SYBR green I at 1×. After 20 min of incubation, in the dark, the stained sample was analyzed by flow cytometry. For each flow cytometric measurement, approximately 100,000 events were analyzed. All samples were analyzed in triplicate and two independent experiments were performed.
In general terms: A flow cytometer gives signals particle by particle.

Series [2] deals with A2780 ovarian cancer cells. Details: method as in PMID 32391537. The note with it: 48 h incubation, MTT; starred values; read-out: IC50 A2780, 48 h; cited from earlier work.
Series [3] in a line: Cyclic voltammetry. The class given is physicochemical. The note with it: CH2Cl2, NBu4PF6. An excerpt: The redox properties of the various gold(III) bis(dithiolene) and bis(diselenolene) complexes were investigated by cyclic voltammetry using the same conditions, dichloromethane solutions and NBu4PF6 as supporting electrolyte. Under these conditions, the nature of the counter-ion, Ph4P^+ or Et4N^+, had no influence on the redox properties observed, due to ion exchange with the Bu4N^+ of the supporting electrolyte. Thus, only the result of one monoanion is included in Table 1, even if the two salts were analyzed. For all the investigated monoanionic bis(dithiolene) complexes, three redox processes are observed on the cyclic voltammograms. On the anodic scan, the two oxidation waves correspond to the oxidation of the monoanionic species into the neutral and to the monocationic complex. Most of these complexes had the tendency to deposit on the electrode once oxidized and frequently a strong desorption peak was observed on the reversible scan. This phenomenon occurs essentially for the complex with an exocyclic sulfur atom, [AuSR(=S)]^−1. On the cathodic scan, an irreversible process associated with the reduction in the monoanion into the dianion occurs (Scheme 2). […] The presence of oxygen instead of sulfur makes the oxidation of the monoanionic into the neutral species easier. On the other hand, the presence of electron-withdrawing substituents such as =C(CN)2 induces an anodic shift of the oxidation potentials by 300 mV, compared with the =O derivative, leading to a monoanion which is more difficult to oxidize than the other complexes of the series. […] Indeed, the potential difference between the second and the first oxidation potentials amounts to 470 mV and 410 mV for the =O and the =C(CN)2 derivatives, respectively, while for the =S analogues this value is smaller (170 mV). […] For comparison, we also investigated the redox behavior of Auranofin using the same experimental conditions in CH2Cl2 in the presence of NBu4PF6 as a supporting electrolyte. Using these conditions, upon anodic scan only one irreversible oxidation process is observed at 1.42 V vs. SCE. Therefore, all these monoanionic gold bis(dithiolene) and bis(diselenolene) complexes are easier to oxidize than Auranofin.
All reagents and materials from commercial sources were used without further purification. NMR spectra were recorded at room temperature using CDCl3 unless otherwise stated (Figures S7–S15). Chemical shifts are reported in ppm and ^1H NMR spectra were referenced to residual CHCl3 (7.26 ppm) and ^13C NMR spectra were referenced to CHCl3 (77.2 ppm). Mass spectra were recorded with an Agilent 6510 instrument for organics compounds and with a Thermo-Fisher Q-Exactive instrument for complexes by the Center Régional de Mesures Physiques de l’Ouest, Rennes. Cyclic voltammograms (CV)s were carried out on a 10^−3 M solution of complex in CH2Cl2-[NBu4] [PF6] 0.1 M. CVs were recorded on a Biologic SP-50 instruments at 0.1 Vs^−1 on a platinum disk electrode. Potentials were measured versus KCl Saturated Calomel Electrode (SCE). Column chromatography was performed using silica gel Merck 60 (70–260 mesh). The solvents were purified and dried by standard methods. The proligand 2-SEt(=C(CN2)), [72] and complexes [N][AuSMe(=S)], [73] [N][AuSEt(=S)], [74] [P][AuSEt(=O)], [75] [N][AuSeEt(=S)] [75] and [P][AuSPr(=S)] [76] were synthesized according to the previously reported procedure.

Consider 3 compounds from article PMC9266914, “Broad Spectrum Functional Activity of Structurally Related Monoanionic Au(III) Bis(Dithiolene) Complexes” (International Journal of Molecular Sciences, 2022).

The IC50 is the point on the concentration scale where inhibition reaches its midpoint. As for `CCn1c2c(sc1=[Se])[S][Au-]1([S]c3sc(=[Se])n(CC)c3[S]1)[S]2.c1ccc([P+](c2ccccc2)(c2ccccc2)c2ccccc2)cc1` [[P][AuSEt(=Se)]], the IC50 in series [1] was determined as 1000 ± 391 nM.

In the case of `CCn1c2c(sc1=S)[S][Au-]1([S]c3sc(=S)n(CC)c3[S]1)[S]2.c1ccc([P+](c2ccccc2)(c2ccccc2)c2ccccc2)cc1` [[P][AuSEt(=S)]], in series [1], the half-inhibitory concentration (IC50) came out at 1060 ± 393 nM.

Turning to `CC(=O)OC[C@H]1O[C@@H]([S-])[C@H](OC(C)=O)[C@@H](OC(C)=O)[C@@H]1OC(C)=O.CCP(CC)CC.[Au+]` [Auranofin, reference compound], in series [2], the IC50 was 430 ± 270 nM. Besides, the “irreversible oxidation process (anodic scan)” value in series [3] is 1.42 V vs. SCE.
